Test results as given in patent publication US11399542B2, “Pesticidally active heterocyclic derivatives with sulfur containing substituents” (SYNGENTA PARTICIPATIONS AG, priority 2017, dated 2022).

Legend:
Type in all cases: in vivo
[1] = tested on: Myzus persicae (Green Peach Aphid); assay: Example B6: Activity against Myzus persicae, systemic via roots of pea seedlings; conditions: 144 h, test rate 24 ppm, pea seedling roots in test solution, 6 days
Procedure: Roots of pea seedlings infested with an aphid population of mixed ages were placed directly in the aqueous test solutions prepared from 10′000 DMSO stock solutions. The samples were assessed for mortality 6 days after placing seedlings in test solutions.

[2] = tested on: Diabrotica balteata (Corn Root Worm); assay: Example B4: Activity against Diabrotica balteata, sprayed maize sprouts; conditions: 96 h, application rate 200 ppm, L2 larvae on maize sprouts, 4 days after infestation, read-out: effect in at least one of the two categories (mortality or growth inhibition)
Procedure: Maize sprouts placed onto an agar layer in 24-well microtiter plates were treated with aqueous test solutions prepared from 10′000 ppm DMSO stock solutions by spraying. After drying, the plates were infested with L2 larvae (6 to 10 per well). The samples were assessed for mortality and growth inhibition in comparison to untreated samples 4 days after infestation.

[3] = tested on: Myzus persicae (Green Peach Aphid); assay: Example B5: Activity against Myzus persicae, sprayed sunflower leaf discs; conditions: foliar, 144 h, application rate 200 ppm, mixed-age aphids on sunflower leaf discs, 6 days after infestation
Procedure: (§1) Sunflower leaf discs were placed on agar in a 24-well microtiter plate and sprayed with aqueous test solutions prepared from 10′000 ppm DMSO stock solutions. After drying, the leaf discs were infested with an aphid population of mixed ages. The samples were assessed for mortality 6 days after infestation.

[4] = tested on: Aedes aegypti (Yellow Fever Mosquito); assay: Example B11: Activity against Aedes aegypti, dry deposit in tissue culture plates; conditions: 200 ppm in ethanol; adult females; after 48 h and/or 24 h
Procedure: Test solutions, at an application rate of 200 ppm in ethanol, were applied to 12 well tissue culture plates. Once the deposits were dry, five, two to five day old adult female Aedes aegypti were added to each well, and sustained with a 10% sucrose solution in a cotton wool plug. Assessment of knockdown was made one hour after introduction, and mortality was assessed at 24 and 48 hours after introduction.

[5] = tested on: Euschistus heros (Neotropical Brown Stink Bug); assay: Example B9: Activity against Euschistus heros, sprayed soybean leaf; conditions: 120 h, application rate 200 ppm, N2 nymphs on soybean leaf, 5 days after infestation, read-out: effect in at least one of the two categories (mortality or growth inhibition)
Procedure: Soybean leaf on agar in 24-well microtiter plates were sprayed with aqueous test solutions prepared from 10′000 ppm DMSO stock solutions. After drying the leaf were infested with N2 nymphs. The samples were assessed for mortality and growth inhibition in comparison to untreated samples 5 days after infestation.

[6] = tested on: Frankliniella occidentalis (Western Flower Thrips); assay: Example B8: Activity against Frankliniella occidentalis, sprayed sunflower leaf discs; conditions: foliar, 168 h, application rate 200 ppm, mixed ages on sunflower leaf discs, 7 days after infestation
Procedure: as §1, with “in” for “in a”, “plates” for “plate”, “[…]” for “10′000 ppm”, “drying” for “drying,”, “a Frankliniella” for “an aphid”, “7” for “6”

[7] = tested on: Plutella xylostella (Diamond Back Moth); assay: Example B3: Activity against Plutella xylostella, artificial diet, L2 larvae; conditions: 120 h, application rate 200 ppm, L2 larvae on artificial diet, 5 days after infestation, read-out: effect in at least one of the two categories (mortality or growth inhibition)
Procedure: 24-well microtiter plates with artificial diet were treated with aqueous test solutions prepared from 10′000 ppm DMSO stock solutions by pipetting. After drying, the plates were infested with L2 larvae (10 to 15 per well). The samples were assessed for mortality and growth inhibition in comparison to untreated samples 5 days after infestation.

[8] = tested on: Spodoptera littoralis (Egyptian Cotton Leaf Worm); assay: Example B1: Activity against Spodoptera littoralis, sprayed cotton leaf discs; conditions: foliar, 72 h, application rate 200 ppm, L1 larvae on cotton leaf discs, 3 days after infestation, read-out: control (at least one of mortality, anti-feedant effect, growth inhibition)
Procedure: Cotton leaf discs were placed onto agar in 24-well microtiter plates and sprayed with aqueous test solutions prepared from 10′000 ppm DMSO stock solutions. After drying the leaf discs were infested with five L1 larvae. The samples were assessed for mortality, anti-feeding effect, and growth inhibition in comparison to untreated samples 3 days after infestation. Control of Spodoptera littoralis by a test sample is given when at least one of the categories mortality, anti-feedant effect, and growth inhibition is higher than the untreated sample.

[9] = tested on: Bemisia tabaci (Cotton White Fly); assay: Example B7: Activity against Bemisia tabaci, sprayed cotton leaf discs; conditions: foliar, 144 h, application rate 200 ppm, adult white flies on cotton leaf discs, 6 days after incubation
Procedure: Cotton leaf discs were placed on agar in 24-well microtiter plates and sprayed with aqueous test solutions prepared from 10′000 ppm DMSO stock solutions. After drying the leaf discs were infested with adult white flies. The samples were checked for mortality 6 days after incubation.

[10] = tested on: Spodoptera littoralis (Egyptian Cotton Leaf Worm); assay: Example B2: Activity against Spodoptera littoralis, systemic via lettuce roots in agar; conditions: 144 h, test rate 12.5 ppm, lettuce root uptake, 6 days after infestation, read-out: effect in at least one of the three categories (mortality, anti-feeding, or growth inhibition)
Source text: Test compounds were applied by pipette from 10′000 ppm DMSO stock solutions into 24-well plates and mixed with agar. Lettuce seeds were placed onto the agar and the multi well plate was closed by another plate which contained also agar. After 7 days the compound was absorbed by the roots and the lettuce grew into the lid plate. The lettuce leaves were then cut off into the lid plate. Spodoptera eggs were pipetted through a plastic stencil onto a humid gel blotting paper and the lid plate was closed with it. The samples were assessed for mortality, anti-feedant effect and growth inhibition in comparison to untreated samples 6 days after infestation.

[11] = tested on: Tetranychus urticae (Two-Spotted Spider Mite); assay: Example B10: Activity against Tetranychus urticae, sprayed bean leaf discs; conditions: foliar, 192 h
Procedure: Bean leaf discs on agar in 24-well microtiter plates were sprayed with aqueous test solutions prepared from 10′000 ppm DMSO stock solutions. After drying the leaf discs were infested with a mite population of mixed ages. The samples were assessed for mortality on mixed population (mobile stages) 8 days after infestation.

In the case of CCS(=O)(=O)c1cc2c(cc1-c1nc3cc(C(F)(F)F)cnc3n1C)n(C)c(=O)n2C [Compound P3, 5-ethylsulfonyl-1,3-dimethyl-6-[3-methyl-6-(trifluoromethyl)imidazo[4,5-b]pyridin-2-yl]benzimidazol-2-one], the mortality at 24 ppm [1] was at least 80%, the percent effect (mortality or growth inhibition) at 200 ppm [2] was at least 80% and the mortality at 200 ppm [3] was at least 80%. For the same molecule, the “control of Aedes aegypti” value [4] was “at least 80%”, the percent effect (mortality or growth inhibition) at 200 ppm [5] was at least 80% and the mortality at 200 ppm [6] was at least 80%. The percent effect (mortality or growth inhibition) at 200 ppm [7] was at least 80%, the percent control (mortality, anti-feedant effect or growth inhibition) at 200 ppm [8] was at least 80% and the mortality at 200 ppm [9] was at least 80%. The percent effect (mortality, anti-feeding or growth inhibition) at 12.5 ppm [10] was at least 80%.
Work on CCn1c(=O)n(C)c2cc(S(=O)(=O)CC)c(-c3nc4cc(C(F)(F)F)cnc4n3C)cc21 [Compound P6, 1-ethyl-5-ethylsulfonyl-3-methyl-6-[3-methyl-6-(trifluoromethyl)imidazo[4,5-b]pyridin-2-yl]benzimidazol-2-one] yielded a mortality at 24 ppm [1] of at least 80%, a percent effect (mortality or growth inhibition) at 200 ppm [2] of at least 80% and a mortality at 200 ppm [3] of at least 80%. For the same molecule, the percent effect (mortality or growth inhibition) at 200 ppm [5] was at least 80%, the percent effect (mortality or growth inhibition) at 200 ppm [7] was at least 80% and the percent control (mortality, anti-feedant effect or growth inhibition) at 200 ppm [8] was at least 80%. It also gave a mortality at 200 ppm [9] of at least 80% and a mortality at 200 ppm [11] of at least 80%.
